1 compound from publication PMC8895377, “In Vivo Targeting Replication Protein A for Cancer Therapy” (Frontiers in Oncology, 2022) can be followed below.

Molecules are shown by their SMILES.

This test concerns the target Escherichia coli single strand binding protein (SSB) (Escherichia coli, UniProt P0AGE0). The test is described as follows: EMSA internal specificity control, SSB–ssDNA complex. As to conditions: internal specificity control in EMSA. The method, then:
EMSAs were performed as previously described ([9]). Briefly, reactions were conducted in 20 mM HEPES (pH 7.8), 1 mM DTT, 0.001% NP-40, and 50 mM NaCl. RPAis were suspended in 100% dimethlysulfoxide (DMSO), and DMSO concentration in the final reaction mixture was constant at less than 5%. Purified full-length RPA (120 ng) was incubated with the indicated RPAi or vehicle in reaction buffer for 30 min before the addition of the [^32]P-labeled 34-base ssDNA probe. Reactions were incubated for 5 min at room temperature, and products were separated via 6% native polyacrylamide gel electrophoresis. The bound and unbound fractions were quantified by phosphor-imager analysis using ImageQuant software (Molecular Dynamics, CA), and data were fit by non-linear regression using GraphPad Prism.
Figure 2 Replication protein A inhibitor (RPAi) inhibitory activity. (A) Chemical structure of RPAi’s 329 and 2004. (B) EMSA analysis of RPA–DNA interaction inhibition by 329 and 2004. Lanes 3–6 in each panel contain 6.25, 12.5, 25, and 50 µM of the indicated RPAi, respectively. The * indicates the position of the Escherichia coli SSB–single-stranded DNA (ssDNA) complex that serves as an internal specificity control. (C) Cell viability of H460 NSCLC cells in response to 329 and 2004.

Chain of Escherichia coli single strand binding protein (SSB) (P0AGE0 2-178): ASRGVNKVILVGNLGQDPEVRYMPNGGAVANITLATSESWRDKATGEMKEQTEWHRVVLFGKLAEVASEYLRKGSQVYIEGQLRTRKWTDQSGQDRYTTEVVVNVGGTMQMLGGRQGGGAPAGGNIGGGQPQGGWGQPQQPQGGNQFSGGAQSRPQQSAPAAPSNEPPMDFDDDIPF

With `CCOc1ccc2cc(C3CC(c4ccc(I)cc4)=NN3C(=O)CCCC(=O)NCCCN3CCOCC3)c(Cl)nc2c1` (stereo not shown) [compound 329], the “interaction of E. coli SSB with ssDNA” value is listed as “not impacted”.
